Test results: paper PMC7366380, “Discovery of a Potent and Selective Covalent Inhibitor and Activity-Based Probe for the Deubiquitylating Enzyme UCHL1, with Antifibrotic Activity” (Journal of the American Chemical Society, 2020)
“And” between values parts separate entries of the source, which are not always exact repeats. Equal entries are not always repeated.

Tests used:
Assay in all cases: Quantitative chemical proteomic profiling of ABP 2 in HEK293 cells: other DUBs and proteins across the proteome
[1] = molecular target: T1, DUBs and other proteins in HEK293 cells (Homo sapiens, UniProt P45974); details: USP5, listed as ABP 2
T1 sequence (P45974 1-858): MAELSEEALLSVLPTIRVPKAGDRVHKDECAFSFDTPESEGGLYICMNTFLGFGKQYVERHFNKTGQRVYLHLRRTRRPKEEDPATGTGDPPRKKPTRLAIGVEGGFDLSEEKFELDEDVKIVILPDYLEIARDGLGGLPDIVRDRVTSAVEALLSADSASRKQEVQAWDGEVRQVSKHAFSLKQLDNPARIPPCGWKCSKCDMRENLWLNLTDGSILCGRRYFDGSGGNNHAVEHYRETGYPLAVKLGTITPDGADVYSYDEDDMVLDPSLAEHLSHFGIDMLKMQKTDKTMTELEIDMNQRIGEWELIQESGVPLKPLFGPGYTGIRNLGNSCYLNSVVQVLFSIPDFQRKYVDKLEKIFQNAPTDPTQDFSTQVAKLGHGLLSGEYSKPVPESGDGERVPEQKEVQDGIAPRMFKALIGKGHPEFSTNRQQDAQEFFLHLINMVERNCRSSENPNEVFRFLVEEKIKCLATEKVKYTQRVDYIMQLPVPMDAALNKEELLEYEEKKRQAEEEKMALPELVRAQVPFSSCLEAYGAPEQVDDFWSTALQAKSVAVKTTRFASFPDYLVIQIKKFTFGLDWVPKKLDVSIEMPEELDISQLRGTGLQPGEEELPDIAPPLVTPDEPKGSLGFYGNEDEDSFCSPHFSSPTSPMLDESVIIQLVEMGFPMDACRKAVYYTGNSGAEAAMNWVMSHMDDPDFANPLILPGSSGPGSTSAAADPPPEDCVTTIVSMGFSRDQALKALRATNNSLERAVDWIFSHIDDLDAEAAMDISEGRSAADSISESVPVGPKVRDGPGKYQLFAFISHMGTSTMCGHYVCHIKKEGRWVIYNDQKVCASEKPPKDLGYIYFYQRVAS

[2] = molecular target: DUBs and other proteins in HEK293 cells (Homo sapiens, UniProt Q93009); details: USP7, listed as ABP 2
Chain of DUBs and other proteins in HEK293 cells (Homo sapiens, UniProt Q93009) (Q93009 whole entry): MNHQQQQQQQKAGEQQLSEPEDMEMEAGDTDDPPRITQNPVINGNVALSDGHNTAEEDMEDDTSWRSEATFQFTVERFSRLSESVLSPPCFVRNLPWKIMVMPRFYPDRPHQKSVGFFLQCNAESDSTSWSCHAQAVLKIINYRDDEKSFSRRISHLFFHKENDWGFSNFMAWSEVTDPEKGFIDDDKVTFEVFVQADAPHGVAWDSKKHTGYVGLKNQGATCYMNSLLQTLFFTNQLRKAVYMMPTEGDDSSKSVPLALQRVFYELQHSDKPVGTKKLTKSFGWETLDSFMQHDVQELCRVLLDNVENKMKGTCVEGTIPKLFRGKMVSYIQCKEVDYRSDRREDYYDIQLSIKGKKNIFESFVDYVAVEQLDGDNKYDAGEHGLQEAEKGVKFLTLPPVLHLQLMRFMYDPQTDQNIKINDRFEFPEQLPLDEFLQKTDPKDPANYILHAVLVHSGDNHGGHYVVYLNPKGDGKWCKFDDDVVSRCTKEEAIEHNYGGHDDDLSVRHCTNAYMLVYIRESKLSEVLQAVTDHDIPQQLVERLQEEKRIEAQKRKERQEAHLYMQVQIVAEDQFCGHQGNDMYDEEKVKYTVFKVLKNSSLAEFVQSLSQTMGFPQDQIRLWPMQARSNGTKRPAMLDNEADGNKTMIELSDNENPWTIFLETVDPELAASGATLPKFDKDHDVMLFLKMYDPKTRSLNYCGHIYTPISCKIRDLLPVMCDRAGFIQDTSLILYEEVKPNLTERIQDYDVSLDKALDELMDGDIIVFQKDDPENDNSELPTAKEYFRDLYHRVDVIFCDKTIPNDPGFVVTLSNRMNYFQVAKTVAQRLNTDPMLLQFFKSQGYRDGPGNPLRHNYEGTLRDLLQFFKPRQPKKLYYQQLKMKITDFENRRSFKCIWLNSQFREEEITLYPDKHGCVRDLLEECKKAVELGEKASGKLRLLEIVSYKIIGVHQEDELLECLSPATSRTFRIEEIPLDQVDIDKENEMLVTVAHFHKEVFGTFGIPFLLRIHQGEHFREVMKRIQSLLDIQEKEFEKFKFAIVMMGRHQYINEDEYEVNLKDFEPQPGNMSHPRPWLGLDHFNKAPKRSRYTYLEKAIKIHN

[3] = molecular target: T2, DUBs and other proteins in HEK293 cells (Homo sapiens, UniProt Q9Y4E8); details: USP15, listed as ABP 2
T2 sequence (Q9Y4E8 1-981): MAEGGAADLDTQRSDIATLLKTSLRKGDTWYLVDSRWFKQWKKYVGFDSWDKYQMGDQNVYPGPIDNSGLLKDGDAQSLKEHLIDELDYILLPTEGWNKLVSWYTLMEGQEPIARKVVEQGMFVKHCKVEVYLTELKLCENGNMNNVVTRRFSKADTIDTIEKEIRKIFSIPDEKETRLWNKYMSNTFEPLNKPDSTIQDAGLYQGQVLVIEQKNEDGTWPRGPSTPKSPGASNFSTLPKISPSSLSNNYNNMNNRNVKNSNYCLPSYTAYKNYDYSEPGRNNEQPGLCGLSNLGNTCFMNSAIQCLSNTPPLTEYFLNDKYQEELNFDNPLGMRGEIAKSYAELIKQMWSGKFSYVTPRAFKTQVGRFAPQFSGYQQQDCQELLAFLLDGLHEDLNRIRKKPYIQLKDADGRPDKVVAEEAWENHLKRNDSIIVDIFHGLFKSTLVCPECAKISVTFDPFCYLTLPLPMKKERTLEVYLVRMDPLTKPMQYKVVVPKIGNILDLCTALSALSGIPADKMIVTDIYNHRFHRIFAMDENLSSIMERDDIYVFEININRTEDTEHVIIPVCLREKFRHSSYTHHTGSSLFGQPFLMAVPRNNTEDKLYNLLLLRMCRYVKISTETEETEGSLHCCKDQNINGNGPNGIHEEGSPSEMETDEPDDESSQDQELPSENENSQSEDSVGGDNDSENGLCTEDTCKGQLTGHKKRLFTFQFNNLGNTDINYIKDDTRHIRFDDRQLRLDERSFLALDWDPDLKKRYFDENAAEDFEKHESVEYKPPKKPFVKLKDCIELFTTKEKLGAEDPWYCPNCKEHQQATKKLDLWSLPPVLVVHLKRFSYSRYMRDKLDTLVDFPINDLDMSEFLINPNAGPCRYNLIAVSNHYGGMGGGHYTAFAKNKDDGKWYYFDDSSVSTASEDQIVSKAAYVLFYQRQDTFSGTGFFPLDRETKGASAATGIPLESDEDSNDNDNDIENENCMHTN

[4] = molecular target: T3, DUBs and other proteins in HEK293 cells (Homo sapiens, UniProt P51665); details: PSMD7, listed as ABP 2
T3 sequence (P51665 1-324): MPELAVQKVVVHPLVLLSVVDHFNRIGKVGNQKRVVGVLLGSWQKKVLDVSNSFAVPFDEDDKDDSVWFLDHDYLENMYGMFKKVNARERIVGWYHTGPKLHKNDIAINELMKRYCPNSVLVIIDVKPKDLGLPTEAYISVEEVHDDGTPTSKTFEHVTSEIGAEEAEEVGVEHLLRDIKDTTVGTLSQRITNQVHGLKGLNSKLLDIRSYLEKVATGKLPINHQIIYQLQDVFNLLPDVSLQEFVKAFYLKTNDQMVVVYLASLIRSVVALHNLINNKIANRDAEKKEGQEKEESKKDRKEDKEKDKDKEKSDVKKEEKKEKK

[5] = 200 nM, 180 min, replicates A,C

`C#Cc1cnc2[nH]cc(-c3cccc4c3CCN4C(=O)[C@@H]3CCCN3C#N)c2c1` [Compound 2] was tested, and the “Log2 reporter intensity values (Log2FC, DMSO substract)” value (“Log2 reporter intensity values” for short) ([1]; 2 nM, 60 min, replicates A-C) was -0.1407 and 0.0289 and 0.1099, the “Log2 reporter intensity values” value ([1]; 20 nM, 10 min, replicates B,C) was 0.1281 and the “Log2 reporter intensity values” value ([1]; 20 nM, 60 min, replicates A-C) was 0.06053 and 0.195 and 0.2148. For the same compound, the “Log2 reporter intensity values” value ([1]; 20 nM, 180 min, replicates A-C) was 0.2725 and 0.06742 and 0.2092, the “Log2 reporter intensity values” value ([1]; 200 nM, 10 min, replicates B,C) was 0.2092 and 0.2483 and the “Log2 reporter intensity values” value ([1]; 200 nM, 60 min, replicates A-C) was 0.08791 and 0.2394. The “Log2 reporter intensity values” value [1, 5] was 0.2625 and 0.2347, the “Log2 reporter intensity values” value ([2]; 2 nM, 60 min, replicates A-C) was 0.06357 and 0.017 and -0.3747 and the “Log2 reporter intensity values” value ([2]; 20 nM, 10 min, replicates B,C) was -0.07969 and -0.2354. For the same compound, the “Log2 reporter intensity values” value ([2]; 20 nM, 60 min, replicates A-C) was 0.02327 and -0.09058 and -0.2812, the “Log2 reporter intensity values” value ([2]; 20 nM, 180 min, replicates A-C) was -0.1814 and -0.1595 and -0.1999 and the “Log2 reporter intensity values” value ([2]; 200 nM, 10 min, replicates B,C) was 0.1137. For the same compound, the “Log2 reporter intensity values” value ([2]; 200 nM, 60 min, replicates A-C) was -0.04347 and 0.1524 and 0.1409, the “Log2 reporter intensity values” value [2, 5] was -0.01106 and 0.3029 and the “Log2 reporter intensity values” value ([3]; 2 nM, 60 min, replicates A-C) was 0.1138 and 0.004511 and -0.04471. For the same compound, the “Log2 reporter intensity values” value ([3]; 20 nM, 10 min, replicates B,C) was 0.2038 and 0.1797, the “Log2 reporter intensity values” value ([3]; 20 nM, 60 min, replicates A-C) was 0.04003 and 0.2301 and -0.05461 and the “Log2 reporter intensity values” value ([3]; 20 nM, 180 min, replicates A-C) was -0.06212 and 0.248 and 0.23. For the same compound, the “Log2 reporter intensity values” value ([3]; 200 nM, 10 min, replicates B,C) was -0.05955 and -0.05362, the “Log2 reporter intensity values” value ([3]; 200 nM, 60 min, replicates A-C) was 0.07483 and 0.06943 and 0.1943 and the “Log2 reporter intensity values” value [3, 5] was 0.004999 and 0.2331. For the same compound, the “Log2 reporter intensity values” value ([4]; 2 nM, 60 min, replicates A-C) was -0.04989 and -0.02897 and -0.2015, the “Log2 reporter intensity values” value ([4]; 20 nM, 10 min, replicates B,C) was -0.09409 and -0.09867 and the “Log2 reporter intensity values” value ([4]; 20 nM, 60 min, replicates A-C) was 0.07866 and 0.1721 and 0.02873. For the same compound, the “Log2 reporter intensity values” value ([4]; 20 nM, 180 min, replicates A-C) was 0.04655 and 0.01609 and -0.03959, the “Log2 reporter intensity values” value ([4]; 200 nM, 10 min, replicates B,C) was 0.1092 and 0.06216 and the “Log2 reporter intensity values” value ([4]; 200 nM, 60 min, replicates A-C) was -0.1489 and -0.1748. The “Log2 reporter intensity values” value [4, 5] was -0.06266 and -0.01801.
